Laboratory results from patent US6525001B1, “Substituted pyrimidine and pyridine herbicides” (Mid-American Commercialization Corporation, priority 1997, dated 2003).

What was measured:
Assay in all cases: Test D
Type in all cases: in vivo
[1] = test system: spring barley (Hordeum vulgare); set-up: key: 0 is no effect; details: PREEMERGENCE
wild oat (Avena fatua) [2] = test system: wild oat (Avena fatua); set-up: key: 0 is no effect; 100 is complete control; details: PREEMERGENCE
[3] = test system: scentless chamomile (Matricaria inodora); details: PREEMERGENCE
[4] = test system: wild mustard (Sinapis arvensis); details: PREEMERGENCE
[5] = test system: lambsquarters (Chenopodium album); details: POSTEMERGENCE
Method: (§1) Compounds evaluated in this test were formulated in a non-phytotoxic solvent mixture which included a surfactant and applied to plants that were in the 1- to 4-leaf stage (postemergence application). A mixture of sandy loam soil and greenhouse potting mix in a 60:40 ratio was used for the postemergence test.
(§2) Plantings of these crops and weed species were adjusted to produce plants of appropriate size for the postemergence test. All plant species were grown using normal greenhouse practices. Crop and weed species include alfalfa (Medicago sativa), annual bluegrass (Poa annua), blackgrass (Alopecurus myosuroides), black nightshade (Solanum nigra), chickweed (Stellaria media), common poppy (Papaver rhoeas), deadnettle (Lamium amplexicaule), downy brome (Bromus tectorum), field violet (Viola arvensis), galium 2 (Galium aparine), green foxtail (Setaria viridis), Italian ryegrass (Lolium multiflorum), jointed goatgrass (Aegilops cylindrica), kochia (Kochia scoparia), lambsquarters (Chenopodium album), lentil (Lens culinaris), littleseed canarygrass (Phalaris minor), pea (Pisum sativum), potato (Solanum tuberosum), rape (Brassica napus), redroot pigweed (Amaranthus retroflexus), Russian thistle (Salsola kali), scentless chamomile (Matricaria inodora), sorghum (Sorghum vulgare), spring barley (Hordeum vulgare), sugar beet (Beta vulgaris), sunflower (Helianthus annuus), ivyleaf speedwell (Veronica hederaefolia), spring wheat (Triticum aestivum), winter wheat (Triticum aestivum), wild buckwheat (Polygonum convolvulus), wild mustard (Sinapis arvensis), wild oat (Avena fatua), windgrass (Apera spica-venti) and winter barley (Hordeum vulgare).
(§3) Treated plants and untreated controls were maintained in a greenhouse for approximately 21 to 28 days, after which all treated plants were compared to untreated controls and visually evaluated. Plant response ratings, summarized in Table D, are based upon a 0 to 100 scale where 0 is no effect and 100 is complete control. A dash response (−) means no test result.

[6] = test system: deadnettle (Lamium amplexicaule); set-up: key: 0 is no effect; details: PREEMERGENCE
[7] = test system: redroot pigweed (Amaranthus retroflexus); set-up: key: 0 is no effect; 100 is complete control; details: PREEMERGENCE
[8] = test system: downy brome (Bromus tectorum); details: PREEMERGENCE, Rate 250 g/ha
[9] = test system: winter wheat (Triticum aestivum); details: POSTEMERGENCE
Method: as §1, §2, §3

[10] = test system: spring barley (Hordeum vulgare); details: POSTEMERGENCE
Method: as §1, §2, §3

wild oat (Avena fatua) [11] = details: POSTEMERGENCE
Method: as §1, §2, §3

[12] = test system: annual bluegrass (Poa annua); details: POSTEMERGENCE
Method: as §1, §2, §3

[13] = test system: littleseed canarygrass (Phalaris minor); details: POSTEMERGENCE
Method: as §1, §2, §3

[14] = test system: winter barley (Hordeum vulgare); details: POSTEMERGENCE
Method: as §1, §2, §3

[15] = test system: blackgrass (Alopecurus myosuroides); details: POSTEMERGENCE
Method: as §1, §2, §3

[16] = test system: sunflower (Helianthus annuus); details: POSTEMERGENCE
Method: as §1, §2, §3

[17] = test system: scentless chamomile (Matricaria inodora); details: POSTEMERGENCE
Method: as §1, §2, §3

[18] = test system: spring wheat (Triticum aestivum); details: POSTEMERGENCE
Method: as §1, §2, §3

[19] = test system: jointed goatgrass (Aegilops cylindrica); details: POSTEMERGENCE
Method: as §1, §2, §3

[20] = test system: windgrass (Apera spica-venti); details: POSTEMERGENCE, Rate 62 g/ha
Method: as §1, §2, §3

[21] = test system: downy brome (Bromus tectorum); details: POSTEMERGENCE
Method: as §1, §2, §3

[22] = test system: green foxtail (Setaria viridis); details: POSTEMERGENCE
Method: as §1, §2, §3

[23] = test system: Italian ryegrass (Lolium multiflorum); details: POSTEMERGENCE
Method: as §1, §2, §3

[24] = test system: black nightshade (Solanum nigra); details: PREEMERGENCE

Compound: CCc1cnc(-c2ccc(C(F)(F)F)cc2)nc1Cc1cccc(C(F)(F)F)c1 [Compound 22]
- Plant response rating, Spring Barley ([1]; Rate 62 g/ha): 0
- Plant response rating, Spring Barley ([1]; Rate 125 g/ha): 10
- Plant response rating, Spring Barley ([1]; Rate 250 g/ha): 2
- Plant response rating, Wild oat (wild oat (Avena fatua) [2]; Rate 62 g/ha): 0
- Plant response rating, Wild oat (wild oat (Avena fatua) [2]; Rate 125 g/ha): 30
- Plant response rating, Wild oat (wild oat (Avena fatua) [2]; Rate 250 g/ha): 30
- Plant response rating, Scentless chamo ([3]; Rate 62 g/ha): 60
- Plant response rating, Scentless chamo ([3]; Rate 125 g/ha): 70
- Plant response rating, Scentless chamo ([3]; Rate 250 g/ha): 70
- Plant response rating, Wild mustard ([4]; Rate 62 g/ha): 30
- Plant response rating, Wild mustard ([4]; Rate 125 g/ha): 60
- Plant response rating, Wild mustard ([4]; Rate 250 g/ha): 30
- Plant response rating, Lambsquarters ([5]; Rate 62 g/ha): 60
- Plant response rating, Lambsquarters ([5]; Rate 125 g/ha): 60
- Plant response rating, Deadnettle ([6]; Rate 62 g/ha): 0
- Plant response rating, Deadnettle ([6]; Rate 125 g/ha): 70
- Plant response rating, Deadnettle ([6]; Rate 250 g/ha): 10
- Plant response rating, Redroot pigweed ([7]; Rate 62 g/ha): 60
- Plant response rating, Redroot pigweed ([7]; Rate 125 g/ha): 100
- Plant response rating, Redroot pigweed ([7]; Rate 250 g/ha): 70
- Plant response rating, Downy brome [8]: 10
- Plant response rating, Wheat (winter) ([9]; Rate 62 g/ha): 10
- Plant response rating, Wheat (winter) ([9]; Rate 125 g/ha): 10
- Plant response rating, Spring Barley ([10]; Rate 62 g/ha): 10
- Plant response rating, Spring Barley ([10]; Rate 125 g/ha): 20
- Plant response rating, Wild oat (wild oat (Avena fatua) [11]; Rate 62 g/ha): 20
- Plant response rating, Wild oat (wild oat (Avena fatua) [11]; Rate 125 g/ha): 65
- Plant response rating, Annual bluegras ([12]; Rate 62 g/ha): 30
- Plant response rating, Annual bluegras ([12]; Rate 125 g/ha): 70
- Plant response rating, LS canarygrass ([13]; Rate 62 g/ha): 20
- Plant response rating, LS canarygrass ([13]; Rate 125 g/ha): 60
- Plant response rating, Barley (winter) ([14]; Rate 62 g/ha): 10
- Plant response rating, Barley (winter) ([14]; Rate 125 g/ha): 10
- Plant response rating, Blackgrass ([15]; Rate 62 g/ha): 10
- Plant response rating, Blackgrass ([15]; Rate 125 g/ha): 20
- Plant response rating, Sunflower ([16]; Rate 62 g/ha): 10
- Plant response rating, Sunflower ([16]; Rate 125 g/ha): 20
- Plant response rating, Scentless chamo ([17]; Rate 62 g/ha): 50
- Plant response rating, Scentless chamo ([17]; Rate 125 g/ha): 80
- Plant response rating, Spring Wheat ([18]; Rate 62 g/ha): 10
- Plant response rating, Spring Wheat ([18]; Rate 125 g/ha): 20
- Plant response rating, Jointed goatgra ([19]; Rate 62 g/ha): 10
- Plant response rating, Jointed goatgra ([19]; Rate 125 g/ha): 15
- Plant response rating, Windgrass [20]: 30
- Plant response rating, Downy brome ([21]; Rate 62 g/ha): 10
- Plant response rating, Downy brome ([21]; Rate 125 g/ha): 20
- Plant response rating, Green foxtail ([22]; Rate 62 g/ha): 10
- Plant response rating, Green foxtail ([22]; Rate 125 g/ha): 35
- Plant response rating, I. Ryegrass ([23]; Rate 62 g/ha): 10
- Plant response rating, I. Ryegrass ([23]; Rate 125 g/ha): 10
- Plant response rating, Blk nightshade ([24]; Rate 62 g/ha): 10
- Plant response rating, Blk nightshade ([24]; Rate 125 g/ha): 60
- Plant response rating, Blk nightshade ([24]; Rate 250 g/ha): 50
